Test results from patent US20100256207A1, “AMORPHOUS OLMESARTAN MEDOXOMIL” (priority 2007, published 2010).
“Also recorded” adds a separate entry of the source.

Experiments:
[1] = cited from earlier work
[2] = type: physicochemical
Method: The powder obtained by the process according to the invention as described above and in the following examples was also subjected to Differential Scanning Calorimetry (DSC). It will be apparent to one skilled in the art that the exothermic event at 100-140° C. is a heating-induced recrystallisation of the amorphous form to the crystalline prior art form. This is confirmed by XRPD data and confirms that the chemical entity of the initial amorphous material does represent olmesartan medoxomil. Further, it also confirms that the amorphous olmesartan medoxomil according to the above described embodiments of the invention is sufficiently kinetically stable or metastable, as no conversion to other polymorphic forms occurs below 100° C.
The DSC thermal analysis data was obtained using a Mettler-Toledo DSC821e apparatus under the following parameters:
(§1) Temperature profile: 25-300° C.@5° C./min
(§2) Nitrogen purge gas, 50 ml/min
(§3) Aluminium pan, […], pierced prior to scan

[3] = Thermo-Gravimetric Analysis (TGA): water content / hygroscopicity; type: physicochemical
Method: The powder obtained by the process according to the invention as described above and in the following examples was also subjected to Thermo-Gravimetric Analysis (TGA).
The water content was determined by weight loss in the TGA data at 25-105° C.
The TGA analysis data was obtained using a Mettler-Toledo TGA851e apparatus under the following parameters:
as §1, §2, §3

kinetic stability: temperature below which no conversion to other polymorphic forms occurs [2] [°C] | exothermic event: heating-induced recrystallisation of the amorphous form to the crystalline prior art form ([2]; DSC, 25-300° C. at 5° C./min, nitrogen purge, confirmed by XRPD) | water content ([3]; weight loss in the TGA data at 25-105° C.) | SMILES | aqueous solubility [1] | hygroscopicity [3]
 |  |  | CCCc1nc(C(C)(C)O)c(C(=O)OCc2oc(=O)oc2C)n1Cc1ccc(-c2ccccc2-c2nnn[nH]2)cc1 [Olmesartan medoxomil, 2,3-dihydroxy-2-butenyl 4-(1-hydroxy-1-methylethyl)-2-propyl-1-[p-(o-tetrazol-5-yl-phenyl)benzyl]imidazole-5-carboxylate cyclic 2,3-carbonate] | very low | 
≥ 100 | 100-140 °C | less than 2 % by weight | CCCc1nc(C(C)(C)O)c(C(=O)OCc2oc(=O)oc2C)n1Cc1ccc(-c2ccccc2-c2nnn[nH]2)cc1 [amorphous olmesartan medoxomil, 2,3-dihydroxy-2-butenyl 4-(1-hydroxy-1-methylethyl)-2-propyl-1-[p-(o-tetrazol-5-yl-phenyl)benzyl]imidazole-5-carboxylate cyclic 2,3-carbonate] |  | surprisingly low hygroscopicity; also recorded: substantially non-hygroscopic
